Source: article PMC7440915, “Discovery of surrogate agonists for visceral fat Treg cells that modulate metabolic indices in vivo” (eLife, 2020)
Where no end group is shown, it is not given here.

Tested on: vTreg53 Treg cells
Assay: Expansion of transferred vTreg53 Treg cells in Spl/LN or VAT after prime and boost
Type: in vivo, mouse
Conditions: compared with adjuvant alone, CFA s.c. then IFA i.p.
Source text: Figure 4. SPs induce proliferation and activation of vTreg53 Treg cells in vitro and in vivo. (A–D) Proliferation and activation of vTreg53 Treg cells by different concentrations of SPs for 3 days in vitro (n = 3). (A) Representative flow cytometric plot of cell division. (B) Summary of cell proliferation. (C) Mean flourescence intensity (MFI) of CD44 staining in clonotype^+ Treg cells. (D) MFI of CD62L staining in clonotype^+ Treg cells. (E) Proliferation of transferred CD45.2^+ vTreg53 Treg cells in the spleen of CD45.1^+ B6 recipient mice immunized s.c. with CFA or CFA/Fat1562 at day 3 (n = 3). […]
To assess early Treg proliferation following peptide stimulation in vivo, 0.4 million Treg cells were sorted from pooled Spl and LNs of 6-8wk-old male CD45.2^+ Tg^+ Foxp3-GFP^KI/y mice by Moflo, labeled by the CellTrace Violet dye (ThermoFisher Scientific), and were i.v.-injected into 6-8wk old male B6.CD45.1^+ mice. […] Proliferation of clonotype^+ Tregs in the spleen was determined three days later. […] Six weeks later, the recipient mice were immunized with 200 µg CFA/peptides s.c. on the lower back, and one week later were boosted with 100 μg IFA/peptides i.p. After another week, clonotype^+ CD45.2^+ Treg cells from the Spl/LNs or VAT of recipient mice were analyzed by flow cytometry and double-sorted for ultra-low-input RNA-seq. […]

Sequence: TMYKNPRPMAATG [Fat1562]
- expansion of clonotype^+ Treg cells in VAT: > 25 fold
